“Also recorded” adds a separate entry of the source. Like-named read-outs stand apart in the source and are kept apart here.
Legend:
NCS-1/Ric8a interaction = target: T1, NCS-1/Ric8a interaction (Homo sapiens, UniProt P62166); test: Co-immunoprecipitation assay of NCS-1/Ric8a interaction in transfected HEK293 cells; assay type: cell-based; details: for NCS-1/Ric8a interaction: HEK293 cells transfected with human Ric8a (V5 tag) and NCS1, IP with anti-NCS1, Western blot with anti-V5, DMSO lane = baseline; for modulatory activity: stated as the reason for modelling the compounds in Drosophila Frq2, underlying test not specified
T1 construct: expressed in transfected cells; host or cells: HEK293
T1 sequence (P62166 2-190 limits assumed): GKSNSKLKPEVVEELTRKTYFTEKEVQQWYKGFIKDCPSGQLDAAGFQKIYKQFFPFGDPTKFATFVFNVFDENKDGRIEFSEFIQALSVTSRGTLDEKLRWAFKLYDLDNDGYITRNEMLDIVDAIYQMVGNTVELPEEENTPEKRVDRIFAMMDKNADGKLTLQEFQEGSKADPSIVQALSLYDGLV
T1 sequence (Q9NPQ8 whole entry partner): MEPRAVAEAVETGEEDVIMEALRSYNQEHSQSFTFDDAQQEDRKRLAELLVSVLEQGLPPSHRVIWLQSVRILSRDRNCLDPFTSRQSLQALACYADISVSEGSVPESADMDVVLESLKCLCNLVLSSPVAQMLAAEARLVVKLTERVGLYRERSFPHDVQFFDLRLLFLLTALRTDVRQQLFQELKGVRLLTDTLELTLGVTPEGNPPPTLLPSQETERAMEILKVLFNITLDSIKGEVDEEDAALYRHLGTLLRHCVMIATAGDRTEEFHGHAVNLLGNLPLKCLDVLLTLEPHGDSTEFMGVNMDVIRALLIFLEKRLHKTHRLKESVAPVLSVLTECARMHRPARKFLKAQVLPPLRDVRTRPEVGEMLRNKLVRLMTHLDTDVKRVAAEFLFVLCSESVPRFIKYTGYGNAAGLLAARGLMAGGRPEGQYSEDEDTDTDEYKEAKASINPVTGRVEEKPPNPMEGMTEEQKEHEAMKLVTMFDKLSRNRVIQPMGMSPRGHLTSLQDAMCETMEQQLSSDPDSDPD
Experimental: To identify compounds useful as modulators of the protein complex formed by NCS-1 and Ric8 (specifically as compounds useful for promoting NCS-1/Ric8a interaction), the experiment shown in Figure 1 was carried out. […] The DMSO lane represents baseline levels of NCS1/Ric8a interaction. IP was performed with anti-NCS1 antibodies, followed by the immunodetection of Ric8a in Western blot with the anti-V5 antibody.
(§1) • Figure 1. […] The DMSO lane represents […]. • Figure 2. […] The curves were fitted considering a stoichiometry of 1:1. For correct curve comparison, intensities were normalized and depicted as (I0 - I)/I0. X. The value of r^2 is 0.998. • Figure 3. […] The residues in which sequence differences are found are shown in pink. • Figure 4. These three figures show the pharmacophore group taking the compound A3H3 as an example. Specifically, groups A1, A2, and N6 (N) refer to the heteroatoms forming the central part of acylhydrazone commonly found in all the assayed compounds, in other words, the carbonyl (A1) bound to the N of amide (N6), which is in turn bound to another imine N (A2). The terms R7 (R) and R8 (R') refer to the aromatic rings which act as substituents. Both the carbonyl-bound R and the imine N-bound R are aromatic • Figure 5. […] Evaluation of the efficacy of compound A3H3 in a model for Huntington's disease. Wild-type mice WT and transgenic mice (HD) expressing exon 1 of human huntingtin (strain R6/1) were treated orally with compound A3H3 at a dose of 25 mg/kg. The treatment started at 3 months of age and lasted for 6 weeks. As a measurement of motor coordination, stride length (A) and the stay time on Rotarod (B) were analyzed.
In order to evaluate the capacity of the compounds of the invention, A3H3, A5H2, and A3H4, for modulating interaction between human NCS-1 and Ric8as, HEK293 cells were transfected with a version of epitope V5-labeled Ric8a (Ric8a-V5) and NCS-1, performing cell incubation and then cell lysis with the product to be assayed. The amount of NCS-1-bound Ric8a-V5 was then assessed by means of the immunoprecipitation technique.

[1] = test system: transgenic mice (HD) expressing exon 1 of human huntingtin (strain R6/1); test: Motor coordination in a mouse model for Huntington's disease; assay type: in vivo; details: oral, 25 mg/kg, start at 3 months of age, after 6 weeks, significant differences with respect to the rest of groups
Text: as §1

dNCS-1 = target: T2, dNCS-1 (Drosophila melanogaster, UniProt Q9VWX8); test: Affinity for dNCS-1 by fluorescence spectroscopy; assay type: binding; details: for affinity in the fluorescence technique: additional fluorescence studies, result in words
T2 sequence (Q9VWX8 1-187): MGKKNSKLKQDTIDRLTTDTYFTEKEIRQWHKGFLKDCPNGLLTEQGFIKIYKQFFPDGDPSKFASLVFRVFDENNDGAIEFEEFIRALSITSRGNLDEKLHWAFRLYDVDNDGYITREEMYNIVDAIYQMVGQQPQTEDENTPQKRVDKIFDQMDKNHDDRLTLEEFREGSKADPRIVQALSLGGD
Text: The protein complex formed by NCS-1 and Ric8 regulates the number of synapses and neurotransmitter release probability, so it is considered a good therapeutic target for the treatment of diseases in which the synapse is impaired. Based on fluorescence spectroscopy studies, the affinity of compounds for dNCS-1 (neuronal calcium sensor of Drosophila) has been proven. Neuronal calcium sensor NCS-1 is a protein the sequence of which is conserved from yeasts to humans.
The affinity of the compounds for dNCS-1 was measured by means of the fluorescence spectroscopy technique. The emission intensity of the complex is analyzed, where the signal is monitored at increasing concentrations of ligand (1:0 to 1:30 equivalents), keeping the protein concentration […], 30.8 µM, 1 eq.) constant. The affinity constant is thereby obtained through the apparent disassociation constant. […] The experiments are performed at 5°C with dNCS-1 in 50 mM Tris buffer, pH 7.9, 125 mM NaCl, 0.5 mM CaCl2 with 5% DMSO in a total volume of 300 µL. The experiment is performed at the excitation wavelength of 295 nm and at the emission wavelength of 345 nm (maximum emission) depending on the compound in a Jobin Yvon Floromax4 spectrofluorometer equipped with a Peltier Thermostat; the obtained values are the result of the normalized average of the three repetitions for each measurement. […] The affinity constants found for the tested compounds are as follows: […]

[2] = test system: flies overexpressing human aβ42arc (D42Gal4> aβ42arc); test: Number of synapses in a Drosophila melanogaster model for Alzheimer's disease; assay type: in vivo; details: flies fed with 100 µM throughout the entire life cycle; adult abdominal motor neurons of 20 days; nc82-positive points, confocal images; vs DMSO
Experimental: It has been described above that the expression of the human aβ42arc peptide (Arctic mutation) in motor neurons leads to a reduction in the number of synapses with respect to normal neuromuscular junctions in individuals of the same age, therefore, flies overexpressing human aβ42arc (D42Gal4> aβ42arc) were fed with 100 µM compound A3H3 or with the same amount of solvent, DMSO, throughout the entire life cycle. Adult abdominal motor neurons of 20 days were analyzed and the number of synapses (nc82-positive points) was determined in different flies using confocal images.

[3] = test system: Flies overexpressing aβ42arc (D42Gal4> aβ42arc) in their motor neurons; test: Locomotor activity in a Drosophila melanogaster model for Alzheimer's disease (Drosophila activity monitors); assay type: in vivo; details: D42Gal4> aβ42arc flies fed 100 µM; total number of beam breaks per hour, two consecutive days; vs DMSO
Experimental: As mentioned, overexpression of the human aβ42arc peptide in the motor neurons of Drosophila melanogaster causes synapse loss and this correlates with a severe locomotor dysfunction. Flies overexpressing aβ42arc (D42Gal4> aβ42arc) in their motor neurons or overexpressing the control (D42Gal4> LacZ) were fed with compound A3H3 at a concentration of 100 µM or with DMSO using the same concentration. Fly locomotor activity was recorded in Drosophila activity monitors (DAM2, Trikinetics) and the total number of beam breaks per hour was analyzed for two consecutive days.

[4] = apparent dissociation constant, 5°C, 50 mM Tris buffer pH 7.9, 125 mM NaCl, 0.5 mM CaCl2, 5% DMSO, excitation 295 nm, emission 345 nm, three repetitions, read-out: Kd

NCS-1/Ric8a interaction (NCS-1/Ric8a interaction)	Kd (dNCS-1; [4])	SMILES	further results
promoted NCS-1/Ric8a interaction	–	O=C(NN=Cc1ccc([N+](=O)[O-])c(O)c1)c1cc2ccccc2cc1O (mixture of isomers) [A3H19, (E/Z)-3-hydroxy-N'-(3-hydroxy-4-nitrobenzylidene)-2-naphthohydrazide]	–
–	–	O=C(NN=Cc1ccc(Cl)c([N+](=O)[O-])c1)c1cccs1 (mixture of isomers) [A5H8, (E/Z)-N'-(4-chloro-3-nitrobenzylidene)thiophene-2-carbohydrazide]	Kd (dNCS-1): 19 ± 8 µM
–	4 ± 1 µM	O=C(NN=Cc1cc(F)ccc1[N+](=O)[O-])c1cccs1 (mixture of isomers) [A7H8, (E/Z)-N'-(5-fluoro-2-nitrobenzylidene)thiophene-2-carbohydrazide]	–
promoted NCS-1/Ric8a interaction	–	O=C(NN=Cc1ccc([N+](=O)[O-])c(O)c1)C(O)c1ccccc1 (racemic) [A3H6, (±)-(E/Z)-2-hydroxy-N'-(3-hydroxy-4-nitrobenzylidene)-2-phenylacetohydrazide]	–
–	32 ± 2 µM	O=C(N/N=C/c1ccc([N+](=O)[O-])c(O)c1)c1ccco1 [A3H2, (E)-N'-(3-hydroxy-4-nitrobenzylidene)furan-2-carbahydrazide]	–
allows interaction with Ric8-a	–	COCCC(=O)N/N=C/c1ccc([N+](=O)[O-])c(O)c1 [A3H4, (E)-N'-(3-hydroxy-4-nitrobenzylidene)-3-methoxypropanehydrazide]	–
promoted NCS-1/Ric8a interaction	–	CC(C)(C)c1ccc(C(=O)N/N=C/c2ccc([N+](=O)[O-])c(O)c2)cc1 [A3H17, (E)-4-(tert-butyl)-N'-(3-hydroxy-4-nitrobenzylidene)benzohydrazide]	–
promoted NCS-1/Ric8a interaction	–	O=C(N/N=C\c1ccc([N+](=O)[O-])c(O)c1)c1ccc(Cl)s1 [A3H18, (Z)-5-chloro-N'-(3-hydroxy-4-nitrobenzylidene)thiophene-2-carbohydrazide]	–
–	–	O=C(Cc1c[nH]c2ccccc12)NN=Cc1ccc2ccccc2c1[N+](=O)[O-] [A4H3]	affinity in the fluorescence technique (dNCS-1): without yielding any positive results
–	–	O=C(NN=Cc1ccc2ccccc2c1[N+](=O)[O-])C(O)c1ccccc1 (stereo not drawn) [A4H6]	affinity in the fluorescence technique (dNCS-1): without yielding any positive results
–	–	O=C(NN=Cc1ccc2ccccc2c1[N+](=O)[O-])c1cccs1 [A4H8]	affinity in the fluorescence technique (dNCS-1): without yielding any positive results
–	25 ± 4 µM	O=C(N/N=C/c1cc(F)ccc1[N+](=O)[O-])c1ccco1 [A7H2, (E)-N'-(5-fluoro-2-nitrobenzylidene)furan-2-carbohydrazide]	modulatory activity (NCS-1/Ric8a interaction): exhibited modulatory activity
promoted NCS-1/Ric8a interaction	7 ± 1 µM	O=C(N/N=C/c1cc([N+](=O)[O-])ccc1F)c1ccco1 [A8H2, (E)-N'-(2-fluoro-5-nitrobenzylidene)furan-2-carbohydrazide]	–

SMILES	NCS-1/Ric8a interaction (NCS-1/Ric8a interaction)	Kd (dNCS-1; [4])	further results
O=C(Cc1c[nH]c2ccccc12)NN=Cc1ccc([N+](=O)[O-])c(O)c1 (mixture of isomers) [A3H3, (E/Z)-N'-(3-hydroxy-4-nitrobenzylidene)-2-(1H-indol-3-yl)acetohydrazide]	allows interaction with Ric8-a; also recorded: promoted NCS-1/Ric8a interaction	43 ± 6 µM	increase of the binding of NCS-1 with Ric8a (NCS-1/Ric8a interaction; HEK293 cells transfected with Ric8a-V5 and NCS-1, amount of NCS-1-bound Ric8a-V5 by immunoprecipitation): more than two fold; modulatory activity (NCS-1/Ric8a interaction): exhibited modulatory activity; stay time on Rotarod [1]: the same cannot be said; stride length [1]: the same cannot be said; pathological reduction of the synapse count [2]: greatly suppressed; locomotor impairment due to overexpression of aβ42arc [3]: thoroughly improved
O=C(N/N=C\c1ccc(Cl)c([N+](=O)[O-])c1)c1ccco1 [A5H2, (Z)-N'-(4-chloro-3-nitrobenzylidene)furan-2-carbohydrazide]	allows interaction with Ric8-a; also recorded: promoted NCS-1/Ric8a interaction	3.2 ± 0.3 µM	–
O=C(NN=Cc1ccc(Cl)c([N+](=O)[O-])c1)C(O)c1ccccc1 (stereo not drawn) [A5H6]	–	3.2 ± 0.3 µM	modulatory activity (NCS-1/Ric8a interaction): exhibited modulatory activity

From patent publication EP3858342A1, “ACYLHYDRAZONES FOR THE TREATMENT OF NEUROLOGICAL DISEASES” (Consejo Superior de Investigaciones Científicas (CSIC), priority 2018, dated 2020)
